The target in test [1] is T1, hENPP2 (UniProtKB/SwissProt Q13822) (Homo sapiens (Human), UniProt Q13822). Description: fluorescent hENPP2 biochemical assay, FS-3 as substrate. The conditions noted are these: read-out: FS3-IC50. Here is the method:
Compound IC50 values are determined in a fluorescent hENPP2 (UniProtKB/SwissProt Sequence ref Q13822) biochemical assay using the fluorogenic autotaxin substrate FS-3 as substrate. FS-3 is a doubly labeled analog of LPC wherein the fluorophore is quenched through intramolecular energy transfer. Without hENPP2, the emission of the probe is quenched. If the substrate is hydrolyzed by hENPP2, the emission of the probe is not quenched anymore resulting in a fluorescence increase.
The enzyme is diluted in 50 mM Tris-HCl pH 8.0, 250 mM NaCl, 5 mM KCl, 1 mM MgCl2, 1 mM CaCl2, 0.1% fatty acid free BSA in a total volume of 20 μL. Enzyme mixture is added to compounds and the resulting mixture is incubated for 30 min at room temperature under shaking. The reaction is started by the addition of 20 μL of 0.75 μM FS-3 diluted in the same buffer as described above and the mixture is incubated at 30° C. for 30 min. Fluorescence is read on the Envision (Excitation 485 nm, emission 520 nm).

Test [2] has as its target T1, hENPP2. The test can be described thus: hENPP2 biochemical assay, LPC as substrate. The conditions noted are these: LPC (palmitoyl 16:0) as substrate. The gist of the method: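 Human ENPP2 in 50 mM Tris-HCl pH 8.5, 500 mM NaCl, 5 mM KCl, 10 mM CaCl2, 0.1% fatty-acid-free BSA, reacted 30 min at 37 °C with LPC 16:0 (150 µM solution added 1:1). Released choline measured via choline oxidase/peroxidase/TOOS/4-aminoantipyrine quinoneimine dye at 555 nm; IC50 reported.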

What is called IC50 is the concentration needed to halve the response being measured.

Each structure is given as a SMILES string.

For `CCOC(=O)CN1CC=C(c2ccc3nc(CC)c(N(C)c4nc(-c5ccc(F)cc5)cs4)n3c2)CC1` [Compound 108, ethyl 2-(4-(2-ethyl-3-((4-(4-fluorophenyl)thiazol-2-yl)(methyl)amino)imidazo[1,2-a]pyridin-6-yl)-5,6-dihydropyridin-1(2H)-yl)acetate], the IC50 on hENPP2 [1] was 0.01 to 100 nM; against hENPP2 [2], > 1000 nM.
For the compound `CCc1nc2ccc(C3CCN(S(C)(=O)=O)CC3)cn2c1N(C)c1nc(-c2ccc(F)cc2NC(C)=O)cs1` [Compound 106, N-(2-(2-((2-ethyl-6-(1-(methylsulfonyl)piperidin-4-yl)imidazo[1,2-a]pyridin-3-yl)(methyl)amino)thiazol-4-yl)-5-fluorophenyl)acetamide], the IC50 is 0.01 to 100 nM on hENPP2 [1] and > 1000 nM against hENPP2 [2].
The like results for `CCc1nc2ccc(N3CCN(S(=O)(=O)CC(=O)O)CC3)cn2c1N(C)c1nc(-c2ccc(F)cc2)cs1` [Compound 60, 2-(4-(2-ethyl-3-((4-(4-fluorophenyl)thiazol-2-yl)(methyl)amino)imidazo[1,2-a]pyridin-6-yl)piperazin-1-ylsulfonyl)acetic acid] were, in that order, 0.01 to 100 nM and > 1000 nM.
For `CCc1nc2ccc(N3CCN(C(=O)C(C)=O)CC3)cn2c1N(C)c1nc(-c2ccc(F)cc2)cs1` [Compound 200, 1-(4-(2-ethyl-3-((4-(4-fluorophenyl)thiazol-2-yl)(methyl)amino)imidazo[1,2-a]pyridin-6-yl)piperazin-1-yl)propane-1,2-dione] the same measures were 0.01 to 100 nM and > 1000 nM.
As for `CCc1nc2ccc(C3CCN(S(C)(=O)=O)CC3)cn2c1N(C)c1nc(-c2ccc(F)cc2O)cs1` [Compound 224, 2-(2-((2-ethyl-6-(1-(methylsulfonyl)piperidin-4-yl)imidazo [1,2-a]pyridin-3-yl)(methyl)amino)thiazol-4-yl)-5-fluorophenol], the IC50 at hENPP2 [1] is 0.01 to 100 nM; against hENPP2 [2], > 1000 nM.
Consider `CCc1nc2ccc(N3CCN(C(=O)CCCO)CC3)cn2c1N(C)c1nc(-c2ccc(F)cc2)cs1` [Compound 52, 1-(4-(2-ethyl-3-((4-(4-fluorophenyl)thiazol-2-yl)(methyl)amino)imidazo[1,2-a]pyridin-6-yl)piperazin-1-yl)-4-hydroxybutan-1-one], for which the results for the IC50 on hENPP2 [1] and on hENPP2 [2] were 0.01 to 100 nM and > 1000 nM, respectively.
For `CCc1nc2ccc(C3=CN(S(C)(=O)=O)CCC3)cn2c1N(C)c1nc(-c2ccc(Cl)cc2)cs1` [Compound 69, 4-(4-chlorophenyl)-N-(2-ethyl-6-(1-(methylsulfonyl)-1,4,5,6-tetrahydropyridin-3-yl)imidazo[1,2-a]pyridin-3-yl)-N-methylthiazol-2-amine] the same measures were 0.01 to 100 nM and > 1000 nM.
As for `CCc1nc2ccc(N3CCN(C(=O)OC(C)(C)C)CC3=O)cn2c1N(C)c1nc(-c2ccc(Cl)cc2)cs1` [Compound 63, tert-butyl 4-(3-((4-(4-chlorophenyl)thiazol-2-yl)(methyl)amino)-2-ethylimidazo[1,2-a]pyridin-6-yl)-3-oxopiperazine-1-carboxylate], the figures for the IC50 at hENPP2 [1] and on hENPP2 [2] were 0.01 to 100 nM and > 1000 nM, respectively.
With `CCc1nc2ccc(C3CCN(C(=O)CN4CCCC4)CC3)cn2c1N(C)c1nc(-c2ccc(F)cc2)cs1` [Compound 126, 1-(4-(2-ethyl-3-((4-(4-fluorophenyl)thiazol-2-yl)(methyl)amino)imidazo[1,2-a]pyridin-6-yl)piperidin-1-yl)-2-(pyrrolidin-1-yl) ethanone], the IC50 on hENPP2 [1] lay in the range of 0.01 to 100 nM; against hENPP2 [2] it was 100 to 500 nM.
For `CCc1nc2ccc(C3CCN(S(C)(=O)=O)CC3)cn2c1N(C)c1nc(-c2ccc(F)cc2)c(C(N)=O)s1` [Compound 137, 2-((2-ethyl-6-(1-(methylsulfonyl)piperidin-4-yl)imidazo[1,2-a]pyridin-3-yl)(methyl)amino)-4-(4-fluorophenyl)thiazole-5-carboxamide], the IC50 is 0.01 to 100 nM at hENPP2 [1] and > 1000 nM at hENPP2 [2].
Consider `CCc1nc2ccc(C3CCNCC3)cn2c1N(C)c1nc(-c2ccc(F)cc2)cs1` [Compound 216, N-(2-ethyl-6-(piperidin-4-yl)imidazo[1,2-a]pyridin-3-yl)-4-(4-fluorophenyl)-N-methylthiazol-2-amine], for which the IC50 on hENPP2 [1] was 0.01 to 100 nM; against hENPP2 [2], > 1000 nM.
Consider `CCc1nc2ccc(N3CCN(S(=O)(=O)CCCN4CCCC4)CC3)cn2c1N(C)c1nc(-c2ccc(F)cc2)cs1` [Compound 57, N-(2-ethyl-6-(4-(3-(pyrrolidin-1-yl)propylsulfonyl)piperazin-1-yl)imidazo [1,2-a]pyridin-3-yl)-4-(4-fluorophenyl)-N-methylthiazol-2-amine], for which the figures for the IC50 at hENPP2 [1] and on hENPP2 [2] were 0.01 to 100 nM and > 1000 nM, respectively.
The like results for `CCc1nc2ccc(C3=CCN(S(C)(=O)=O)CC3)cn2c1N(C)c1nc(-c2ccc(F)cc2)ns1` [Compound 199, N-(2-ethyl-6-(1-(methylsulfonyl)-1,2,3,6-tetrahydropyridin-4-yl)imidazo[1,2-a]pyridin-3-yl)-3-(4-fluorophenyl)-N-methyl-1,2,4-thiadiazol-5-amine] were, in that order, 100 to 500 nM and > 1000 nM.
Consider `CCc1nc2ccc(C3CCN(S(C)(=O)=O)CC3)cn2c1N(C)c1nc(-c2ccc(F)cc2Cl)cs1` [Compound 99, 4-(2-chloro-4-fluorophenyl)-N-(2-ethyl-6-(1-(methylsulfonyl)piperidin-4-yl)imidazo [1,2-a]pyridin-3-yl)-N-methylthiazol-2-amine], for which the results for the IC50 at hENPP2 [1] and against hENPP2 [2] were 0.01 to 100 nM and > 1000 nM, respectively.
Turning to `CCc1nc2ccc(N3CCN(C(=O)CO)CC3)cn2c1N(C)c1nc(-c2ccc(F)cc2)cs1` [Compound 50, 1-(4-(2-ethyl-3-((4-(4-fluorophenyl)thiazol-2-yl)(methyl)amino)imidazo[1,2-a]pyridin-6-yl)piperazin-1-yl)-2-hydroxyethanone], the IC50 is 0.01 to 100 nM on hENPP2 [1] and 500 to 1000 nM against hENPP2 [2].
For `CCc1nc2ccc(N3CCN(CC(=O)N4CCC(NC(C)=O)C4)CC3)cn2c1N(C)c1nc(-c2ccc(F)cc2)cs1` (stereo not shown) [Compound 27, N-(1-(2-(4-(2-ethyl-3-((4-(4-fluorophenyl)thiazol-2-yl)(methyl)amino)imidazo[1,2-a]pyridin-6-yl)piperazin-1-yl)acetoyl)pyrrolidin-3-yl)acetamide] the same measures were 0.01 to 100 nM and 100 to 500 nM.
The like results for `CCc1nc2ccc(N3CCN(C(=O)C4CCN(S(C)(=O)=O)C4)CC3)cn2c1N(C)c1nc(-c2ccc(F)cc2)cs1` (stereo not shown) [Compound 49, (4-(2-ethyl-3-((4-(4-fluorophenyl)thiazol-2-yl)(methyl)amino)imidazo[1,2-a]pyridin-6-yl)piperazin-1-yl)(1-(methylsulfonyl)pyrrolidin-3-yl) methanone] were, in that order, 0.01 to 100 nM and > 1000 nM.
With `CCOC(=O)CN1CCN(c2ccc3nc(CC)c(N(C)c4nc(-c5ccc(Cl)cc5)cs4)n3c2)C1=O` [Compound 184, ethyl 2-(3-(3-((4-(4-chlorophenyl)thiazol-2-yl)(methyl)amino)-2-ethylimidazo[1,2-a]pyridin-6-yl)-2-oxoimidazolidin-1-yl)acetate], the values for the IC50 on hENPP2 [1] and on hENPP2 [2] were 0.01 to 100 nM and > 1000 nM, respectively.
With `CCc1nc2ccc(C3CCN(S(C)(=O)=O)CC3)cn2c1N(C)c1nc(-c2ccc(F)cc2)c(CC#N)s1` [Compound 186, 2-(2-((2-ethyl-6-(1-(methylsulfonyl)piperidin-4-yl)imidazo[1,2-a]pyridin-3-yl)(methyl)amino)-4-(4-fluorophenyl)thiazol-5-yl)acetonitrile], the IC50 is 0.01 to 100 nM on hENPP2 [1] and > 1000 nM against hENPP2 [2].
The like results for `CCc1nc2ccc(C3=NC(CO)CO3)cn2c1N(C)c1nc(-c2ccc(F)cc2)cs1` (stereo not shown) [Compound 239, (2-(2-ethyl-3-((4-(4-fluorophenyl)thiazol-2-yl)(methyl)amino)imidazo[1,2-a]pyridin-6-yl)-4,5-dihydro-oxazol-4-yl)methanol] were, in that order, 0.01 to 100 nM and > 1000 nM.
Take `CCc1nc2ccc(C3CCN(C(=O)OC(C)(C)C)CC3)cn2c1N(C)c1nc(-c2ccc(F)cc2)cs1` [Compound 219, tert-butyl 4-(2-ethyl-3-((4-(4-fluorophenyl)thiazol-2-yl)(methyl)amino)imidazo[1,2-a]pyridin-6-yl)piperidine-1-carboxylate]: the IC50 on hENPP2 [1] was 0.01 to 100 nM; at hENPP2 [2], > 1000 nM.
For `CCc1nc2ccc(C3CCN(CC(=O)N(C)C)CC3)cn2c1N(C)c1nc(-c2ccc(F)cc2)ns1` [Compound 191, 2-(4-(2-ethyl-3-((3-(4-fluorophenyl)-1,2,4-thiadiazol-5-yl)(methyl)amino)imidazo[1,2-a]pyridin-6-yl)piperidin-1-yl)-N,N-dimethylacetamide] the same measures were 0.01 to 100 nM and > 1000 nM.
For `CCOC(=O)CN1CCN(c2ccc3nc(CC)c(N(C)c4nc(-c5ccc(F)cc5)cs4)n3c2)CC1` [Compound 36, ethyl 2-(4-(2-ethyl-3-((4-(4-fluorophenyl)thiazol-2-yl)(methyl)amino)imidazo [1,2-a]pyridin-6-yl)piperazin-1-yl)acetate], the IC50 on hENPP2 [1] fell in the range of 0.01 to 100 nM; against hENPP2 [2], 100 to 500 nM.

The values are drawn from patent publication US9670204B2, “Compounds and pharmaceutical compositions thereof for the treatment of inflammatory disorders” (Galapagos NV, priority 2013, dated 2017).
